Reference: patent publication US4272437A, “Antibacterial agents, and 4-thio azetidinone intermediates” (priority 1979, dated 1981)
Like-named read-outs stand apart in the source and are kept apart here.

What was measured:
Pr. mirabilis A-9900 = experiment: MIC, tube dilution, Proteus mirabilis A9900; assay type: cell-based; details: overnight 37° C.; for MIC: Proteus mirabilis, A9900, Proteus mirabilis A9900, read-out: Minimum Inhibitory Concentration (M.I.C.)
From the text: (§1) Representative compounds of the present invention were subjected to in vitro antibiotic screening against a variety of microorganisms.

Ent. cloacae A-9659 = experiment: MIC, tube dilution, Enterobacter cloacae A9659; assay type: cell-based; details: overnight 37° C.; for MIC: Enterobacter cloacae, A9659, Enterobacter cloacae A9659, read-out: Minimum Inhibitory Concentration (M.I.C.)
From the text: as §1

Staph. aureus A-9537 = experiment: MIC, tube dilution, Staphylococcus aureus A9537; assay type: cell-based; details: overnight 37° C., Nutrient Broth; for MIC: Staphylococcus aureus, A9537, Staph. aureus A9537, read-out: Minimum Inhibitory Concentration (M.I.C.)
From the text: as §1

[1] = system: Staph. aureus A-9537 and 50% serum; experiment: MIC, tube dilution, Staph. aureus A9537 + 50% serum; assay type: cell-based, Staphylococcus aureus; details: overnight 37° C.; for MIC: Staphylococcus aureus, read-out: Minimum Inhibitory Concentration (M.I.C.)
From the text: as §1

[2] = system: Staph. aureus (Pen-Res) A-9606; experiment: MIC, tube dilution, Staphylococcus aureus A9606 (Pen-Res); assay type: cell-based; details: overnight 37° C.; for MIC: Staphylococcus aureus
From the text: as §1

[3] = system: Staph. aureus (Meth-Res) A-15097; experiment: MIC, tube dilution, Staphylococcus aureus A15097 (Meth-Res); assay type: cell-based; details: Staph. aureus A15097 (Meth-Res), overnight 37° C.
From the text: as §1

Str. faecalis A-20688 = experiment: MIC, tube dilution, Streptococcus faecalis A20688; assay type: cell-based; details: overnight 37° C.; for MIC: Enterococcus faecalis, A20688, Str. faecalis A20688, read-out: Minimum Inhibitory Concentration (M.I.C.)
From the text: as §1

Pr. vulgaris A-9716 = experiment: MIC, tube dilution, Proteus vulgaris / Proteus mirabilis A9716; assay type: cell-based, Proteus vulgaris (name changed to Proteus mirabilis); details: overnight 37° C.; for MIC: Proteus vulgaris
From the text: as §1

Ps. aeruginosa A-21213 = experiment: MIC, tube dilution, Pseudomonas aeruginosa A21213; assay type: cell-based; details: Pseudomonas aeruginosa A21213, overnight 37° C.; for MIC: read-out: Minimum Inhibitory Concentration (M.I.C.)
From the text: as §1

[4] = system: Providencia stuartii A21205; experiment: MIC, tube dilution, Providencia stuartii (Pr. rettgeri) A21205; assay type: cell-based; details: for MIC: Providencia stuartii
From the text: as §1

[5] = system: Klebsiella species A20468; experiment: MIC, tube dilution, Klebsiella species A20468; assay type: cell-based; details: Klebsiella species (K. pneumoniae) A20468, overnight 37° C.; for MIC: read-out: Minimum Inhibitory Concentration (M.I.C.)
From the text: as §1

Ent. cloacae A-9656 = experiment: MIC, tube dilution, Enterobacter cloacae A9656; assay type: cell-based; details: Enterobacter cloacae A9656, overnight 37° C.; for MIC: read-out: Minimum Inhibitory Concentration (M.I.C.)
From the text: as §1

Ps. aeruginosa A-9843A = experiment: MIC, tube dilution, Pseudomonas aeruginosa A9843A; assay type: cell-based; details: overnight 37° C.; for MIC: Pseudomonas aeruginosa, A9843A, read-out: Minimum Inhibitory Concentration (M.I.C.), Pseudomonas aeruginosa A9843A
From the text: as §1

Pr. morganii A-15153 = experiment: MIC, tube dilution, Proteus morganii A15153; assay type: cell-based; details: overnight 37° C.; for MIC: Morganella morganii, A15153, Proteus morganii A15153, read-out: Minimum Inhibitory Concentration (M.I.C.)
From the text: as §1

Str. pyogenes A-9604 = experiment: MIC, tube dilution, Streptococcus pyogenes A9604; assay type: cell-based; details: overnight 37° C., Nutrient Broth; for MIC: Streptococcus pyogenes, A9604, Str. pyogenes A9604, read-out: Minimum Inhibitory Concentration (M.I.C.)
From the text: as §1

Str. pneumoniae A-9585 = experiment: MIC, tube dilution, Streptococcus pneumoniae A9585; assay type: cell-based; details: overnight 37° C., Nutrient Broth; for MIC: Streptococcus pneumoniae, A9585, Str. pneumoniae A9585, read-out: Minimum Inhibitory Concentration (M.I.C.)
From the text: as §1

K. pneumoniae A-15130 = experiment: MIC, tube dilution, Klebsiella pneumoniae A15130; assay type: cell-based; details: overnight 37° C.; for MIC: Klebsiella pneumoniae, A15130, K. pneumoniae A15130, read-out: Minimum Inhibitory Concentration (M.I.C.)
From the text: as §1

E. coli A-20341-1 = experiment: MIC, tube dilution, Escherichia coli A20341-1; assay type: cell-based
From the text: as §1

E. coli A-15119 = experiment: MIC, tube dilution, Escherichia coli A15119; assay type: cell-based; details: overnight 37° C.; for MIC: Escherichia coli, A15119, E. coli A15119, read-out: Minimum Inhibitory Concentration (M.I.C.)
From the text: as §1

Ser. marcescens A-20019 = experiment: MIC, tube dilution, Serratia marcescens A20019; assay type: cell-based; details: overnight 37° C.; for MIC: Serratia marcescens, A20019, Serratia marcescens A20019, read-out: Minimum Inhibitory Concentration (M.I.C.)
From the text: as §1

Compound	Minimum Inhibitory Concentration (M.I.C.) [3] [µg/mL]	MIC (Pr. mirabilis A-9900) [µg/mL]	MIC (Ent. cloacae A-9659) [µg/mL]	MIC (Staph. aureus A-9537) [µg/mL]	MIC [1] [µg/mL]	MIC (Str. faecalis A-20688) [µg/mL]	MIC (Ps. aeruginosa A-21213) [µg/mL]	MIC [5] [µg/mL]	MIC (Ent. cloacae A-9656) [µg/mL]	MIC (Ps. aeruginosa A-9843A) [µg/mL]	MIC (Pr. morganii A-15153) [µg/mL]	MIC (Str. pyogenes A-9604) [µg/mL]	MIC (Str. pneumoniae A-9585) [µg/mL]	MIC (K. pneumoniae A-15130) [µg/mL]	MIC (E. coli A-15119) [µg/mL]	MIC (Ser. marcescens A-20019) [µg/mL]	other results
6-Acetoxymethyl-2-methylpenem-3-carboxylic Acid [Example 2]	8																Minimum Inhibitory Concentration (M.I.C.) (Pr. mirabilis A-9900; Proteus mirabilis A9900): 63 µg/mL; Minimum Inhibitory Concentration (M.I.C.) (Ent. cloacae A-9659; Enterobacter cloacae A9659): 125 µg/mL; Minimum Inhibitory Concentration (M.I.C.) (Staph. aureus A-9537; Staph. aureus A9537): 8 µg/mL; Minimum Inhibitory Concentration (M.I.C.) [1]: > 63 µg/mL; Minimum Inhibitory Concentration (M.I.C.) ([2]; Staph. aureus A9606 (Pen-Res)): 4 µg/mL; Minimum Inhibitory Concentration (M.I.C.) (Str. faecalis A-20688; Str. faecalis A20688): 63 µg/mL; Minimum Inhibitory Concentration (M.I.C.) (Pr. vulgaris A-9716; Proteus vulgaris / Proteus mirabilis A9716): 63 µg/mL; Minimum Inhibitory Concentration (M.I.C.) (Ps. aeruginosa A-21213): > 125 µg/mL; Minimum Inhibitory Concentration (M.I.C.) ([4]; Providencia stuartii (Pr. rettgeri) A21205, overnight 37° C.): 32 µg/mL; Minimum Inhibitory Concentration (M.I.C.) [5]: > 125 µg/mL; Minimum Inhibitory Concentration (M.I.C.) (Ent. cloacae A-9656): > 125 µg/mL; Minimum Inhibitory Concentration (M.I.C.) (Ps. aeruginosa A-9843A; Pseudomonas aeruginosa A9843A): > 125 µg/mL; Minimum Inhibitory Concentration (M.I.C.) (Pr. morganii A-15153; Proteus morganii A15153): 63 µg/mL; Minimum Inhibitory Concentration (M.I.C.) (Str. pyogenes A-9604; Str. pyogenes A9604): 2 µg/mL; Minimum Inhibitory Concentration (M.I.C.) (Str. pneumoniae A-9585; Str. pneumoniae A9585): 1 µg/mL; Minimum Inhibitory Concentration (M.I.C.) (K. pneumoniae A-15130; K. pneumoniae A15130): 63 µg/mL; Minimum Inhibitory Concentration (M.I.C.) (E. coli A-20341-1; E. coli A20341-1; overnight 37° C.): 32 µg/mL; Minimum Inhibitory Concentration (M.I.C.) (E. coli A-15119; E. coli A15119): 32 µg/mL; Minimum Inhibitory Concentration (M.I.C.) (Ser. marcescens A-20019; Serratia marcescens A20019): 125 µg/mL
CCC1C(=O)N2C(C(=O)[O-])=C(C)S[C@H]12.[Na+] (stereo partly drawn) [1 (cis), Sodium 6-Ethyl-2-methylpenem-3-carboxylate]	63	125	> 125	8	> 63	63	> 125	> 125	> 125	> 125	> 125	4	4	> 125	125	> 125	MIC ([2]; read-out: Minimum Inhibitory Concentration (M.I.C.), Staph. aureus A9606 (Pen-Res)): 16 µg/mL; MIC (Pr. vulgaris A-9716; A9716, read-out: Minimum Inhibitory Concentration (M.I.C.), Proteus vulgaris / Proteus mirabilis A9716): 63 µg/mL; MIC ([4]; A21205, read-out: Minimum Inhibitory Concentration (M.I.C.)): 63 µg/mL; MIC (E. coli A-20341-1; Escherichia coli, A203411; E. coli A20341-1; overnight 37° C.; read-out: Minimum Inhibitory Concentration (M.I.C.)): 125 µg/mL
CC1=C(C(=O)O)N2C(=O)C(C(C)(C)O)C2S1 (stereo not drawn) [Example 3, Potassium 6-(2'-Hydroxyisopropyl)-2-methylpenem-3-carboxylate]		63	125	2	> 63	125	> 125	> 125	125	> 125	125	4	1	125	63	63	MIC ([2]; Staph. aureus A9606 (Pen-Res), read-out: Minimum Inhibitory Concentration (M.I.C.)): 4 µg/mL; MIC ([3]; Staphylococcus aureus, read-out: Minimum Inhibitory Concentration (M.I.C.)): 32 µg/mL; MIC (Pr. vulgaris A-9716; A9716, Proteus vulgaris / Proteus mirabilis A9716, read-out: Minimum Inhibitory Concentration (M.I.C.)): 32 µg/mL; MIC ([4]; A21205, Providencia stuartii (Pr. rettgeri) A21205, overnight 37° C., read-out: Minimum Inhibitory Concentration (M.I.C.)): 63 µg/mL; MIC (E. coli A-20341-1; Escherichia coli, A203411, E. coli A20341-1; overnight 37° C.; read-out: Minimum Inhibitory Concentration (M.I.C.)): 63 µg/mL
